# Assays:
# OCI-Ly1 = assay: Tumor growth of DLBCL cell line derived xenograft model OCI-Ly1; format: in vivo, mice; conditions: OCI-Ly1 xenograft, dosing dependent
# Description: Mice bearing subcutaneous tumors were orally (po) administered vehicle or Compound A at 1, 3, 10, or 30 mg/kg daily for 22 days (qd×22). Dosing began with tumors at an average of 140 mm^3. […] Statistical analyses were performed using 2-way ANOVA: p<0.0001 (****). Error bars represent standard error of the mean (±SEM).
# Mice bearing subcutaneous tumors were orally (po) administered vehicle or Compound A at 1, 3, or 10 mg/kg bi-daily for 23 days (bid×23). Dosing began with tumors at an average of 170 mm^3. […] FIG. 7C depicts tumor lysate BCL6 protein levels 16-hours post-last dose analyzed by western blotting. Individual tumor BCL6 levels are shown in a scatter plot, mean is represented by the bar, determined by densitometry, normalized to GAPDH loading controls, and shown as a percentage of vehicle. Percent BCL6 degradation (%) relative to vehicle is shown above each arm. Statistical analyses were performed using 2-way ANOVA: p<0.0001 (****). Error bars represent standard error of the mean (±SEM).
# SU-DHL-2 = assay: Tumor growth of DLBCL cell line derived xenograft model SU-DHL-2; format: in vivo, mice; conditions: SU-DHL-2 xenograft, po 3, 10 or 30 mg/kg bid×27 or 30 mg/kg qd×27; dosing dependent
# Description: (§1) Mice bearing subcutaneous tumors were orally (po) administered vehicle or Compound A at 3, 10, or 30 mg/kg bi-daily for 27 days (bid×27) or 30 mg/kg daily for 27 days (qd×27). Dosing began with tumors at an average of 180 mm^3. […] FIG. 9C depicts tumor lysate BCL6 protein levels 16-hours post-last dose analyzed by western blotting. Individual tumor BCL6 levels are shown in a scatter plot, mean is represented by the bar, determined by densitometry, normalized to GAPDH loading controls, and shown as a percentage of vehicle. Percent BCL6 degradation (%) relative to vehicle is shown above each arm. Statistical analyses were performed using 2-way ANOVA: p<0.0001 (****). Error bars represent standard error of the mean (±SEM).
# OCI-Ly7 = assay: Tumor growth of DLBCL cell line derived xenograft model OCI-Ly7; format: in vivo, mice; conditions: po 1, 3, 10 or 30 mg/kg daily for 13 days (qd×13), dosing dependent
# Description: (§2) Mice bearing subcutaneous tumors were orally (po) administered vehicle or Compound A at 1, 3, 10, or 30 mg/kg daily for 13 days (qd×13). Dosing began with tumors at an average of 130 mm^3. […] FIG. 8C depicts tumor lysate BCL6 protein levels 16-hours post-last dose analyzed by western blotting. Individual tumor BCL6 levels are shown in a scatter plot, mean is represented by the bar, determined by densitometry, normalized to GAPDH loading controls, and shown as a percentage of vehicle. Percent BCL6 degradation (%) relative to vehicle is shown above each arm. Statistical analyses were performed using 2-way ANOVA: p<0.0001 (****). Error bars represent standard error of the mean (±SEM).
# LY12962 = assay: PDX model of NHL NOS (LY12962); format: in vivo, NOD/SCID or BALB/c Nude Mice; conditions: 30 mg/kg PO QD×21
# Description: (§3) HuPrime® Lymphoma Xenograft Models in NOD/SCID or BALB/c Nude Mice, 4/group, were dosed orally (per os, PO) daily for 21 days (QD×21) and tumor measurements were acquired twice per week. […] Data points represent the mean per group and error bars the standard error of the mean.
# LY6934 = assay: PDX model of DLBCL, ABC/GCB (LY6934); format: in vivo, NOD/SCID or BALB/c Nude Mice; conditions: 30 mg/kg PO QD×21, compared to vehicle
# Description: as §3
# BCL6 protein [1] = target: T1, BCL6 protein (Homo sapiens, UniProt P41182); assay: Tumor lysate BCL6 protein levels in OCI-Ly10 xenograft (western blotting); format: in vivo, mice; set-up: from tissue; host or cells: subcutaneous xenograft tumors of OCI-Ly1, OCI-Ly7, SU-DHL-2 or OCI-Ly10 cells in mice; conditions: all dose levels, 16-hours post-last dose (FIG. 10C)
# Description: as §1, with “28” for “27”, “(bid×28)” for “(bid×27)”, “(qd×28).” for “(qd×27).”, “190” for “180”, “10C” for “9C”, “ANOVA: p<0.05 (*),” for “ANOVA:”
# [2] = Body weight of mice in the PDX models; format: in vivo, NOD/SCID or BALB/c Nude Mice; conditions: 30 mg/kg PO QD×21
# Description: as §3
# LY2214 = assay: PDX model of DLBCL, high-grade B-cell lymphoma (HGBCL, LY2214); format: in vivo, NOD/SCID or BALB/c Nude Mice; conditions: 30 mg/kg PO QD×21, compared to vehicle
# Description: as §3
# LY3148 = assay: PDX model of Burkitt's lymphoma (LY3148); format: in vivo, NOD/SCID or BALB/c Nude Mice; conditions: 30 mg/kg PO QD×21
# Description: as §3
# BCL6 protein [3] = target: T1, BCL6 protein; assay: Tumor lysate BCL6 protein levels in SU-DHL-2 xenograft (western blotting); format: in vivo, mice; set-up: from tissue; host or cells: subcutaneous xenograft tumors of OCI-Ly1, OCI-Ly7, SU-DHL-2 or OCI-Ly10 cells in mice; conditions: 16-hours post-last dose
# Description: as §1
# BCL6 protein [4] = target: T1, BCL6 protein; assay: Tumor lysate BCL6 protein levels in OCI-Ly7 xenograft (western blotting); format: in vivo, mice; set-up: from tissue; host or cells: subcutaneous xenograft tumors of OCI-Ly1, OCI-Ly7, SU-DHL-2 or OCI-Ly10 cells in mice; conditions: 16-hours post-last dose (FIG. 8C)
# Description: as §2
smiles,measurement,setting,value
"CNC(=O)COc1cc2cc(Nc3nc(N4CCC(O[C@H]5C[C@H](N6CCC(c7ccc8c(c7F)CN(C7CCC(=O)NC7=O)C8=O)CC6)C5)CC4)ncc3Cl)ccc2n(C(C)C)c1=O (stereo partly drawn) [Compound A, 2-({6-[(5-chloro-2-{4-[(1r,3r)-3-{4-[2-(2,6-dioxopiperidin-3-yl)-4-fluoro-1-oxo-2,3-dihydro-1H-isoindol-5-yl]piperidin-1-yl}cyclobutoxy]piperidin-1-yl}pyrimidin-4-yl)amino]-2-oxo-1-(propan-2-yl)-1,2-dihydroquinolin-3-yl}oxy)-N-methylacetamide]",Tumor growth,"OCI-Ly1; po 1, 3, 10 or 30 mg/kg daily for 22 days (qd×22)",inhibits the tumor growth
same,Tumor growth,"OCI-Ly1; po 1, 3 or 10 mg/kg bi-daily for 23 days (bid×23)",inhibits the tumor growth
same,Tumor growth,SU-DHL-2,inhibits the tumor growth
same,Tumor growth,OCI-Ly7,inhibits the tumor growth
same,Change in mean tumor volume,LY12962,tumor regressions
same,Change in mean tumor volume,LY6934,tumor regression
same,Tumor lysate BCL6 protein level,BCL6 protein [1],degraded BCL6 protein
same,Body weight loss,[2],No significant body weight loss
same,Change in mean tumor volume,LY2214,tumor regression
same,Change in mean tumor volume,LY3148,tumor regressions
same,Tumor lysate BCL6 protein level,BCL6 protein [3],dose-dependent degradation of BCL6 protein
same,Tumor lysate BCL6 protein level,BCL6 protein [4],dose-dependent degradation of BCL6 protein
